This passage reports IC50 results from patent US10221197B2, “Phosphatidylinositol 3-kinase inhibitors” (Gilead Sciences, Inc., priority 2014, dated 2019).

Format in all cases: biochemical
Test [1] addresses PI3Kγ (Homo sapiens (Human), UniProt P48736). The test is described as follows: TR-FRET enzymatic assay of PI3K isoforms (PI3Kγ). The note with it: TR-FRET, 2×Km ATP, 2 μM PIP2, PI3Kγ at 2 nM, incubated for 30 minutes at 25° C.; read-out: γ IC50. The procedure:
(§1) The compounds of formula (I) were characterized for their enzymatic activity against the PI3K isoforms. Certain compounds of the present application, including certain compounds of formula (II) and (III) were also characterized for their enzymatic activity against PI3K isoforms. The activities were measured using a time-resolved fluorescence resonance energy transfer (TR-FRET) assay.
Background: In TR-FRET formats the signal depends on donor and acceptor labels being close together.

The target of test [2] is PI3Kβ (Homo sapiens (Human), UniProt P42338). The experiment in a line: TR-FRET enzymatic assay of PI3K isoforms (PI3Kβ). The note with it: TR-FRET, 2×Km ATP, 2 μM PIP2, incubated for 30 minutes at 25° C.; read-out: β IC50. The protocol: as §1
Chain of PI3Kβ (P42338 whole entry, canonical isoform): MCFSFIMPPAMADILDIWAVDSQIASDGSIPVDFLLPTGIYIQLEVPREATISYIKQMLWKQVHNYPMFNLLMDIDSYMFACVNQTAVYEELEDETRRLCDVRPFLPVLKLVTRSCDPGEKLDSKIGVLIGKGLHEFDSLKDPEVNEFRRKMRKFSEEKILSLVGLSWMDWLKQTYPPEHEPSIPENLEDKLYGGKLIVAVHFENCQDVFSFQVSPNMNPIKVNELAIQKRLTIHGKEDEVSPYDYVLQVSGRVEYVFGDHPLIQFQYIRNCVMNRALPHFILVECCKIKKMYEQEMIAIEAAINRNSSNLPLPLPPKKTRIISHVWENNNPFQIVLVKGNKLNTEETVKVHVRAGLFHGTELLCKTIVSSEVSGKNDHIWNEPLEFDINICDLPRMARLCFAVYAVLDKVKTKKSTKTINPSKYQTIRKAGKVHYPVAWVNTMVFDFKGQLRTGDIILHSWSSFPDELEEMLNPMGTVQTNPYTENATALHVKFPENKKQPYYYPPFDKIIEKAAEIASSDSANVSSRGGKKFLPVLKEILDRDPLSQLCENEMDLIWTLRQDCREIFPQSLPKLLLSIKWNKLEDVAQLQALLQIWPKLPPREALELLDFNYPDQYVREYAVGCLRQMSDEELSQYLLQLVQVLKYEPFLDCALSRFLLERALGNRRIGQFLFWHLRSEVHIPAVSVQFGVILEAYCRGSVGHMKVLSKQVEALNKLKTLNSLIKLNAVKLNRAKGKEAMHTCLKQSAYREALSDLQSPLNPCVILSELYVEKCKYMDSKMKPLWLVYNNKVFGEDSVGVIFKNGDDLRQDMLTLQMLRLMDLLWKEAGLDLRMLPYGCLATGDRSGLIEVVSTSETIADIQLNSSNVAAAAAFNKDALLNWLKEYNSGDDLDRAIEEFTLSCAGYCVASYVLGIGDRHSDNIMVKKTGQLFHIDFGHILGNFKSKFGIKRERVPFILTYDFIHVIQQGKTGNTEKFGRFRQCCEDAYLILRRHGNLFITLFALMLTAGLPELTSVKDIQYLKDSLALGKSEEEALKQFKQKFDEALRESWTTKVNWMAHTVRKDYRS
Chain of PI3Kβ (P27986 whole entry partner, canonical isoform): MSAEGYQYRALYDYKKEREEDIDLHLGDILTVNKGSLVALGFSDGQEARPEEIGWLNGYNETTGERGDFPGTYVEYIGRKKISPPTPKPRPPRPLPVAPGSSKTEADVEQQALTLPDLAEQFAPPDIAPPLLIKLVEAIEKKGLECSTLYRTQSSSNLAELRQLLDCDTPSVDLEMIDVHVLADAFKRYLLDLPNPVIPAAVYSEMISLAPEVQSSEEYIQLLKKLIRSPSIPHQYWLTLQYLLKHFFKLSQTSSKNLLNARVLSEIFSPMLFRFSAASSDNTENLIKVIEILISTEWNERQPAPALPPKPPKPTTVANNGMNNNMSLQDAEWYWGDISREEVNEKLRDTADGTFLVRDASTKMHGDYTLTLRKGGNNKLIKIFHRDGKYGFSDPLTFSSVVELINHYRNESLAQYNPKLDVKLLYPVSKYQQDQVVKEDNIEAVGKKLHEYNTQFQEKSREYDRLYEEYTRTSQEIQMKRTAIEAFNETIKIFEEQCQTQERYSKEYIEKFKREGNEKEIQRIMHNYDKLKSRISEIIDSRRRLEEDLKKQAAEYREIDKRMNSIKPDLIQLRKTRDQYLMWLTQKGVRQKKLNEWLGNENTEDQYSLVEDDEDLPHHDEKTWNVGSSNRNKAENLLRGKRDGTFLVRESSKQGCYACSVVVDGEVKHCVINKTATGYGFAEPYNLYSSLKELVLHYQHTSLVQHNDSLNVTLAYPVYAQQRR
In test [3] the target is PI3Kδ (Homo sapiens (Human), UniProt O00329). The test is described as follows: TR-FRET enzymatic assay of PI3K isoforms (PI3Kδ). The note with it: 2×Km ATP, 2 μM PIP2, incubated for 30 minutes at 25° C., read-out: δ IC50. The procedure:
as §1

Chain of PI3Kδ (O00329 whole entry, canonical isoform): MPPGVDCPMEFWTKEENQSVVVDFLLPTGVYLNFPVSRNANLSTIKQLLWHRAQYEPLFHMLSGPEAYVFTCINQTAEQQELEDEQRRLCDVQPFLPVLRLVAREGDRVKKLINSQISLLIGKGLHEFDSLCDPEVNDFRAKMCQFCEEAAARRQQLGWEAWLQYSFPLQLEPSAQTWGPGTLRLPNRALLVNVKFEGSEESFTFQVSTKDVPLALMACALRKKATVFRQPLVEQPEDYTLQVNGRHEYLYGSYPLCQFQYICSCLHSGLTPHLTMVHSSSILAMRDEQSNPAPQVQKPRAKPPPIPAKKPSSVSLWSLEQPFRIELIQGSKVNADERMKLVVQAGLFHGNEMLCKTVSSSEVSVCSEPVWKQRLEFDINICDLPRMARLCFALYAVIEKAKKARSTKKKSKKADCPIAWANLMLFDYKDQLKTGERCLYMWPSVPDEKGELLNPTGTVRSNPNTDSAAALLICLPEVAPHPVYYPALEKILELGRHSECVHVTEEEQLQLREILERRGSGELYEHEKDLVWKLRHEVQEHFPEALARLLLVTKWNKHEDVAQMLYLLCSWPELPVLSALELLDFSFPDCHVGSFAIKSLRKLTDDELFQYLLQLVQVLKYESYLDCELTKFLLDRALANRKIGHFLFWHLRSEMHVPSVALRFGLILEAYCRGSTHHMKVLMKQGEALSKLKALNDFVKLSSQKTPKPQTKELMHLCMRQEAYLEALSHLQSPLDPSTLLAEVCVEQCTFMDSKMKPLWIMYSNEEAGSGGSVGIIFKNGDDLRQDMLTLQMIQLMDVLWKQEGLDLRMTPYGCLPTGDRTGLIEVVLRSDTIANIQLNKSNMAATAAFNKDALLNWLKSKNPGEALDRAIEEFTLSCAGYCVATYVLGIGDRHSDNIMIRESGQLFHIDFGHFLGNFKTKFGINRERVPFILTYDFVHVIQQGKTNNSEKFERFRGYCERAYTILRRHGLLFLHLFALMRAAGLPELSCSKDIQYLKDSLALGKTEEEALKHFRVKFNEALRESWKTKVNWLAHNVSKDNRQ
Chain of PI3Kδ (P27986 whole entry partner, canonical isoform): as the sequence (P27986 whole entry partner, canonical isoform) above
Chain of PI3Kγ (P48736 whole entry, canonical isoform): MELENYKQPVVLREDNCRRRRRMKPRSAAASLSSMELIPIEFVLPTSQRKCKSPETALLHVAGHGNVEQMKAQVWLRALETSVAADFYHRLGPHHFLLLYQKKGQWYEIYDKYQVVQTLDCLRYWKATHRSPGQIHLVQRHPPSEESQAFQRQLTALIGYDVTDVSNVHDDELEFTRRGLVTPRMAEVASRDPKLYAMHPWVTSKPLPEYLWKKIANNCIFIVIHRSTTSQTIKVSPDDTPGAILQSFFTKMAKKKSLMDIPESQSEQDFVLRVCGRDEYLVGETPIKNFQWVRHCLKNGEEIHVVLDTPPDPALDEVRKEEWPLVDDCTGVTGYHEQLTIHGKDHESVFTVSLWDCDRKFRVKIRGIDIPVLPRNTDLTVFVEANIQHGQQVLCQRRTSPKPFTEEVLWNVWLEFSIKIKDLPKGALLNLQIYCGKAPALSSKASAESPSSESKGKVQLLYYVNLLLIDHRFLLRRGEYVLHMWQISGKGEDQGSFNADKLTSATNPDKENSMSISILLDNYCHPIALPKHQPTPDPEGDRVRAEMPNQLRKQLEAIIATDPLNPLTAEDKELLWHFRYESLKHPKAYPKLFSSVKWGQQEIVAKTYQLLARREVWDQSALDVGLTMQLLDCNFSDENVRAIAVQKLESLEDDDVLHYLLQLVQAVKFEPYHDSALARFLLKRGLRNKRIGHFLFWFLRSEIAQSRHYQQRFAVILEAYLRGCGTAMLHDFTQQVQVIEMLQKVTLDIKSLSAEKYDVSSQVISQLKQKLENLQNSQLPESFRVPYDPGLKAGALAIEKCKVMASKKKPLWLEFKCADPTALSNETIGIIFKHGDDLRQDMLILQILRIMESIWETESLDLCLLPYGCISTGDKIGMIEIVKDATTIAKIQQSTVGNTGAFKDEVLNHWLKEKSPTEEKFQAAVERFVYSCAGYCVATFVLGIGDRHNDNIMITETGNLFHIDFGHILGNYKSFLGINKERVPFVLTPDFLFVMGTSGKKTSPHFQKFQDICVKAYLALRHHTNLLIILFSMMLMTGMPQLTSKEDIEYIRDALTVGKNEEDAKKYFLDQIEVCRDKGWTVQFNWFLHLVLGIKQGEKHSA
Chain of PI3Kγ (Q8WYR1 whole entry partner, canonical isoform): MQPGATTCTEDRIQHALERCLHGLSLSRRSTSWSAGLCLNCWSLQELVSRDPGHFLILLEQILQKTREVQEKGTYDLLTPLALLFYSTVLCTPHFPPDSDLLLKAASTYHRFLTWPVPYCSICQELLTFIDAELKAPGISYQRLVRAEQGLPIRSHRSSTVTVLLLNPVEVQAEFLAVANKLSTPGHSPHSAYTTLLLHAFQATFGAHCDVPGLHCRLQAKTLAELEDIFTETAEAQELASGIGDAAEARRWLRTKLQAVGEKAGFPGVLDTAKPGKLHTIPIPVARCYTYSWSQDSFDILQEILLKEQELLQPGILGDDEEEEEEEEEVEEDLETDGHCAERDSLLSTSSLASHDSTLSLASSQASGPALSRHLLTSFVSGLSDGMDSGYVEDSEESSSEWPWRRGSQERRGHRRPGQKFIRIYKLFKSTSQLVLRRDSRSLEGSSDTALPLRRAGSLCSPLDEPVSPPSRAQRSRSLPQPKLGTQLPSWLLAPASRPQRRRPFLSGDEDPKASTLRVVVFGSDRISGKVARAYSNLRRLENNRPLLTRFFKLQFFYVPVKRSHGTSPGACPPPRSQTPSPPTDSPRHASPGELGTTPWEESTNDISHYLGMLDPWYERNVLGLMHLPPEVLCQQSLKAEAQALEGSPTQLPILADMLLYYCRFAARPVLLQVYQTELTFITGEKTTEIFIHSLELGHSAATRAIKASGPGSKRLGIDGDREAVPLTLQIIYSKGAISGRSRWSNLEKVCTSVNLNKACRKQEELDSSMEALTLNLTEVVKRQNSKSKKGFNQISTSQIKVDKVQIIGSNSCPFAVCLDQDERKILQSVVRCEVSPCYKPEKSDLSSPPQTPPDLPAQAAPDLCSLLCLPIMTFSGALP

As to `C[C@H](Oc1ncnc2scnc12)c1nc2cccc(Cl)c2c(=O)n1-c1cccc(NC(=O)NC2CCCC2)c1` [Compound 146, (S)-1-(3-(5-chloro-4-oxo-2-(1-(thiazolo[5,4-d]pyrimidin-7-yloxy)ethyl)quinazolin-3(4H)-yl)phenyl)-3-cyclopentylurea], the results for the IC50 in test [1], in test [2] and in test [3] were 2200 nM, 57 nM and 6 nM, respectively.

As for `C[C@H](Oc1ncnc2scnc12)c1nc2cccc(Cl)c2c(=O)n1-c1cccc(NC(=O)NC2(C(F)(F)F)CC2)c1` [Compound 147, (S)-1-(3-(5-chloro-4-oxo-2-(1-(thiazolo[5,4-d]pyrimidin-7-yloxy)ethyl)quinazolin-3(4H)-yl)phenyl)-3-(1-(trifluoromethyl)cyclopropyl)urea], the IC50 (usually the concentration needed to halve the response being measured) worked out at 2300 nM in test [1], 16 nM in test [2] and 12 nM in test [3].

Take `C[C@H](Oc1ncnc2scnc12)c1nc2cccc(Cl)c2c(=O)n1-c1cccc(NC(=O)NCC(F)F)c1` [Compound 148, (S)-1-(3-(5-chloro-4-oxo-2-(1-(thiazolo[5,4-d]pyrimidin-7-yloxy)ethyl)quinazolin-3(4H)-yl)phenyl)-3-(2,2-difluoroethyl)urea]: the IC50 in test [1] was 1800 nM; in test [2], 8 nM; in test [3], 5 nM.

As for `C[C@H](Oc1ncnc2scnc12)c1nc2cccc(Cl)c2c(=O)n1-c1cccc(NC(=O)Nc2cc(C(F)(F)F)no2)c1` [Compound 150, (S)-1-(3-(5-chloro-4-oxo-2-(1-(thiazolo[5,4-d]pyrimidin-7-yloxy)ethyl)quinazolin-3(4H)-yl)phenyl)-3-(3-(trifluoromethyl)isoxazol-5-yl)urea], the figures for the IC50 in test [1], in test [2] and in test [3] were 840 nM, 47 nM and 5 nM, respectively.

Take `CCNC(=O)Nc1cccc(-n2c([C@H](C)Oc3ncnc4scnc34)nc3cccc(Cl)c3c2=O)c1` [Compound 151, (S)-1-(3-(5-chloro-4-oxo-2-(1-(thiazolo[5,4-d]pyrimidin-7-yloxy)ethyl)quinazolin-3(4H)-yl)phenyl)-3-ethylurea]: the IC50 in test [1] is 1300 nM; in test [2], 20 nM; in test [3] it was 4 nM.

`C[C@H](Oc1ncnc2scnc12)c1nc2cccc(Cl)c2c(=O)n1-c1cccc(NC(=O)NCC(F)(F)C(F)(F)F)c1` [Compound 152, (S)-1-(3-(5-chloro-4-oxo-2-(1-(thiazolo[5,4-d]pyrimidin-7-yloxy)ethyl)quinazolin-3(4H)-yl)phenyl)-3-(2,2,3,3,3-pentafluoropropyl)urea]: the IC50 in test [1] came to 2500 nM; in test [2], 17 nM; in test [3], 10 nM.

Consider `CONC(=O)Nc1cccc(-n2c([C@H](C)Oc3ncnc4scnc34)nc3cccc(Cl)c3c2=O)c1` [Compound 153, (S)-1-(3-(5-chloro-4-oxo-2-(1-(thiazolo[5,4-d]pyrimidin-7-yloxy)ethyl)quinazolin-3(4H)-yl)phenyl)-3-methoxyurea], for which the IC50 in test [1] was 1600 nM; in test [2], 48 nM; in test [3], 4 nM.

For the compound `CC(Oc1ncnc2scnc12)c1nc2cccc(Cl)c2c(=O)n1-c1cccc(NC(=O)NCC(F)(F)F)c1` (stereo not drawn) [Compound 154, 1-(3-(5-chloro-4-oxo-2-(1-(thiazolo[5,4-d]pyrimidin-7-yloxy)ethyl)quinazolin-3(4H)-yl)phenyl)-3-(2,2,2-trifluoroethyl)urea], the IC50 came out at 1400 nM in test [1], 4 nM in test [2] and 5 nM in test [3].

Regarding `CC(Oc1ncnc2scnc12)c1nc2cccc(Cl)c2c(=O)n1-c1cccc(NC(=O)Nc2ccccc2Cl)c1` (stereo not drawn) [Compound 156, 1-(3-(5-chloro-4-oxo-2-(1-(thiazolo[5,4-d]pyrimidin-7-yloxy)ethyl)quinazolin-3(4H)-yl)phenyl)-3-(2-chlorophenyl)urea], the IC50 was 930 nM in test [1], 41 nM in test [2] and 2 nM in test [3].

Take `C[C@H](Oc1ncnc2scnc12)c1nc2cccc(Cl)c2c(=O)n1-c1cccc(NC(=O)NCC2OCCO2)c1` [Compound 157, (S)-1-((1,3-dioxolan-2-yl)methyl)-3-(3-(5-chloro-4-oxo-2-(1-(thiazolo[5,4-d]pyrimidin-7-yloxy)ethyl)quinazolin-3(4H)-yl)phenyl)urea]: the results for the IC50 in test [1], in test [2] and in test [3] were 3100 nM, 25 nM and 7 nM, respectively.

As for `C[C@H](Oc1ncnc2scnc12)c1nc2cccc(Cl)c2c(=O)n1-c1cccc(NC(=O)NCCO)c1` [Compound 158, (S)-1-(3-(5-chloro-4-oxo-2-(1-(thiazolo[5,4-d]pyrimidin-7-yloxy)ethyl)quinazolin-3(4H)-yl)phenyl)-3-(2-hydroxyethyl)urea], the IC50 turned out to be 900 nM in test [1], 9 nM in test [2] and 4 nM in test [3].

For `N#Cc1c(N)ncnc1N1CCC[C@H]1c1nc2cccc(Cl)c2c(=O)n1-c1cccc(NC(=O)NCC(F)(F)F)c1` [Compound 159, (S)-1-(3-(2-(1-(6-amino-5-cyanopyrimidin-4-yl)pyrrolidin-2-yl)-5-chloro-4-oxoquinazolin-3(4H)-yl)phenyl)-3-(2,2,2-trifluoroethyl)urea], the IC50 was found to be 5600 nM in test [1], 42 nM in test [2] and 33 nM in test [3].

For the compound `NC(=O)c1cc(F)cc(-n2c([C@@H](Nc3ncnc(N)c3Cl)C3CC3)nc3cccc(Cl)c3c2=O)c1` [Compound 160, (S)-3-(2-(((6-amino-5-chloropyrimidin-4-yl)amino)(cyclopropyl)methyl)-5-chloro-4-oxoquinazolin-3(4H)-yl)-5-fluorobenzamide], the IC50 was more than 10000 nM in test [1], 2400 nM in test [2] and 66 nM in test [3].

As for `N#Cc1c(N)nc(N)nc1N[C@H](c1nc2cccc(Cl)c2c(=O)n1-c1cc(F)cc(C(N)=O)c1)C1CC1` [Compound 161, (S)-3-(5-chloro-2-(cyclopropyl((2,6-diamino-5-cyanopyrimidin-4-yl)amino)methyl)-4-oxoquinazolin-3(4H)-yl)-5-fluorobenzamide], the IC50 in test [1] is 70 nM; in test [2], 2 nM; in test [3] it was 1 nM.

With `NC(=O)c1cc(F)cc(-n2c([C@@H](Nc3nc(N)nc(N)c3Cl)C3CC3)nc3cccc(Cl)c3c2=O)c1` [Compound 162, (S)-3-(5-chloro-2-(cyclopropyl((2,6-diamino-5-chloropyrimidin-4-yl)amino)methyl)-4-oxoquinazolin-3(4H)-yl)-5-fluorobenzamide], the figures for the IC50 in test [1], in test [2] and in test [3] were 2600 nM, 21 nM and 1 nM, respectively.

As for `NC(=O)c1cncc(-n2c([C@@H](Nc3nc(N)nc(N)c3Cl)C3CC3)nc3cccc(Cl)c3c2=O)c1` [Compound 163, (S)-5-(5-chloro-2-(cyclopropyl((2,6-diamino-5-chloropyrimidin-4-yl)amino)methyl)-4-oxoquinazolin-3(4H)-yl)nicotinamide], the IC50 in test [1] amounted to 8200 nM; in test [2], 11 nM; in test [3], 2 nM.

As for `N#Cc1c(N)nc(N)nc1N[C@H](c1nc2cccc(Cl)c2c(=O)n1-c1cncc(C(N)=O)c1)C1CC1` [Compound 164, (S)-5-(5-chloro-2-(cyclopropyl((2,6-diamino-5-cyanopyrimidin-4-yl)amino)methyl)-4-oxoquinazolin-3(4H)-yl)nicotinamide], the IC50 in test [1] amounted to 420 nM; in test [2], 2 nM; in test [3], 1 nM.
